Assay results as given in PMC9388626, “STUB1 is an intracellular checkpoint for interferon gamma sensing” (Scientific Reports, 2022).

Assays:
B16-F10 cells [1] = test: Western blot, IRF1, STAT1 and phospho-Tyr701-STAT1 at 2 h post IFNγ; format: cell-based, murine; conditions: Stub1-null B16-F10, 2 h
Experimental: Cells were dissociated from the wells with 0.25% trypsin (Gibco, 25200056). After rinsing with 0.5 ml PBS, the cell pellets were lysed with chilled cell lysis buffer (Cell Signaling Technology, #9803) supplemented with Halt protease inhibitor cocktail (Thermo Scientific, #78430) and phosphatase inhibitor (Sigma-Aldrich, # 4906837001) for 30 min with intermittent vortexing. The lysate was transferred into PCR-strip tubes and sonicated in a chilled water bath sonicator (QSonica). Lysates were clarified by centrifugation at 15,000 rpm at 4 °C for 15 min. Protein concentration was determined using BCA protein assay kit (Pierce, #23225). The lysates were mixed with LDS sample buffer (Life Technologies, NP0008) and sample reducing agent (Life Technologies, NP0009), followed by heating at 70 °C for 10 min to fully denature the protein. […] Membrane blots were pre-stained with total protein stain (LI-COR, # 926-11016) and imaged with Odyssey CLx. […] The blots were finally probed, for overnight at 4 °C, with the appropriate primary antibodies diluted in Intercept (TBS) blocking buffer supplemented with 0.1% (v/v) Tween-20, followed by the secondary antibodies (IRDye 800CW donkey anti-rabbit or anti-mouse IgG, LI-COR) for 1 h at room temperature. Fluorescent signals were imaged and quantified using Odyssey CLx and Image Studio v5.0. […]

PC-3 cells = test: Growth inhibition, CellTiter-Glo 2.0 (ATP); format: cell-based, human; conditions: PC-3 (prostate), 10 ng ml^−1 each, 6 days
Experimental: (§1) Parental and CRISPR-edited tumour cells were seeded in a cell density of 1800 (DU145), 2000 (PC-3), or 10,000 (MCF7) per well in 96-well CellCarrier plate (PelkinElmer, #6005550) filled with 50 µl culture media + 10% FBS. After 20–24 h incubation, the cells were treated with 10 ng ml^−1 of recombinant human IFNγ (R&D Systems, 285-IF-100), 10 ng ml^−1 of recombinant human TNFα (R&D Systems, 210-TA-020/CF) or a combination of both, by adding an equal volume of the complete culture media containing the cytokines. After incubating for 6 days without media change, the CellTiter-Glo 2.0 (Promega, G9243) or CellTiter-Fluor (Promega, G6082) assay were performed according to manufacturer’ instructions. The luminescence or fluorescence (Ex: 380–400 nm, Em: 505 nm) were detected by Inifinte M1000 PRO (Tecan). For CellTiter-Fluor, triplicate wells without cells were included to determine background fluorescence and the signal average was used for background substraction.

DU145 cells = test: Growth inhibition, CellTiter-Glo 2.0 (ATP); format: cell-based, human; conditions: DU145 (prostate), 10 ng ml^−1 each, 6 days
Experimental: as §1

B16-F10 cells [2] = test: Western blot, protein expression after 24 h IFNγ; format: cell-based, murine
Experimental: Parental, CRISPR-edited or biologic-overexpressed tumour cells were seeded in a cell density of 60,000 (B16-F10), 150,000 (CT26), 100,000 (A375), or 200,000 (A549) per well in 12-well plate filled with 0.8 ml culture media + 10% FBS. After overnight incubation, the culture media were replaced with 1 ml fresh media supplemented with 10% FBS and the designated concentration of the recombinant mouse IFNγ (R&D Systems, #485-MI-100) or recombinant human IFNγ (R&D Systems, #285-IF-100). The cells were stimulated with the cytokine for 24 h before they were harvested by trypsinization for flow cytometry, western blot, or qPCR analysis (6 h treatment).
Cells were dissociated from the wells with 0.25% trypsin (Gibco, 25200056). After rinsing with 0.5 ml PBS, the cell pellets were lysed with chilled cell lysis buffer (Cell Signaling Technology, #9803) supplemented with Halt protease inhibitor cocktail (Thermo Scientific, #78430) and phosphatase inhibitor (Sigma-Aldrich, # 4906837001) for 30 min with intermittent vortexing. The lysate was transferred into PCR-strip tubes and sonicated in a chilled water bath sonicator (QSonica). Lysates were clarified by centrifugation at 15,000 rpm at 4 °C for 15 min. Protein concentration was determined using BCA protein assay kit (Pierce, #23225). The lysates were mixed with LDS sample buffer (Life Technologies, NP0008) and sample reducing agent (Life Technologies, NP0009), followed by heating at 70 °C for 10 min to fully denature the protein. […] Membrane blots were pre-stained with total protein stain (LI-COR, # 926-11016) and imaged with Odyssey CLx. […] The blots were finally probed, for overnight at 4 °C, with the appropriate primary antibodies diluted in Intercept (TBS) blocking buffer supplemented with 0.1% (v/v) Tween-20, followed by the secondary antibodies (IRDye 800CW donkey anti-rabbit or anti-mouse IgG, LI-COR) for 1 h at room temperature. Fluorescent signals were imaged and quantified using Odyssey CLx and Image Studio v5.0. Primary antibodies used were: STUB1/CHIP (Cell Signaling Technology, #2080, 1:2000 dilution), STAT1 (Cell Signaling Technology, #14995, 1:10,000 dilution), phospho-Tyr701-STAT1 (Cell Signaling Technology, #9167, 1:2000 dilution), STAT2 (Cell Signaling Technology, #72604, 1:2000 dilution), IRF1 (Cell Signaling Technology, #8478, 1:2000 dilution), PSMB8 (Cell Signaling Technology, #13635, 1:2000 dilution), PSMB9 (Abcam, ab184172, 1:10,000 dilution), and PSMB10 (Abcam, ab183506, 1:10,000 dilution).

B16-F10 cells [3] = test: Validation of monoclonal Stub1-knockout lines (Western, ICE CRISPR analysis); format: cell-based, murine; conditions: single clone from Stub1-knockout B16-F10 cells
Experimental: Tumour cells were genetically edited by electroporating the Cas9/crRNA/tracrRNA or Cas9/sgRNA ribonucleoprotein (RNP) complexes into cells using the 4D-nucleofector system (Lonza). To prepare the guide RNA complex, a 1:1 mixture of Alt-R crRNA and tracrRNA (50 µM each, IDT) in nuclease-free duplex buffer (IDT) was heated at 95 °C for 5 min, followed by cooling to room temperature. The crRNA/tracrRNA complex or the sgRNA (150 pmol) was mixed with Alt-R S.p. HiFi Cas9 Nuclease V3 (100 pmol, IDT, #1081060), and the resulting mixture was incubated at room temperature for 10 min to form the final RNP complexes which were used immediately. In parallel, the harvested tumour cells were rinsed with PBS. After re-suspending in 20 µl nucleofactor solution (Lonza), the cell suspension was added to the final RNP complexes (4.6 µl) in microcentrifuge tube. The resulting cell suspension was transferred to a designated well of nucleocuvette strip which was then pulsed with the nucleofector system using a preset program. After pulsing, culture media (75 µl) was added and the cell suspension was transferred to a designated well of a 12-well plate filled with 1.0 ml culture media. After 48 h incubation, the CRISPR-edited B16-F10 were subcloned by limiting dilution. The monoclonal cell lines were validated by Western blotting and analyzing the Sanger sequencing results of the PCR amplicon (~ 800 bp) flanking the crRNA-targeted site using ICE v2 CRISPR analysis tool (Synthego). For CT26, the cells were sorted for the top 50th percentile of IFNGR1-high population using BD FACSAria to enrich for the Stub1-null cells (Supplementary Fig. 10a). Human tumour cells, e.g., DU145, PC-3 and MCF7, were used right after the CRISPR editing. Sorting or subcloning was not applied to the human cell lines, since these lines were studied for a brief period in in vitro setting. Loss of STUB1 protein in the human cell lines was confirmed by Western blot analysis.

IFNγ
Early induction of IRF1 and phospho-Tyr701-STAT1 (B16-F10 cells [1]): Loss of Stub1 lowers the stimulating threshold of IFNγ
Growth inhibition of PTPN2- or STUB1-null cells (PC-3 cells): sensitized PTPN2- or STUB1-null prostate tumour cells to growth inhibition
Growth inhibition of PTPN2- or STUB1-null cells (DU145 cells): sensitized PTPN2- or STUB1-null prostate tumour cells to growth inhibition
Protein expression of STAT1, STAT2, IRF1 (B16-F10 cells [2]; Stub1-null B16-F10, 24 h IFNγ): upregulation of STAT1, STAT2, and IRF1 after 24 h stimulation with IFNγ

gStub1 #1 (guide GCATTGCTAAGAAGAAGCGC; chemistry not given here)
Comment (knock-out by Western blot and ICE analysis) (B16-F10 cells [3]): complete knock-out as assessed by Western blot and ICE analysis
Indel (B16-F10 cells [3]): -12 -15
Indel % (by Synthego ICE) (B16-F10 cells [3]): 93%
PSMB8 (Fig. 1e) (B16-F10 cells [2]; IFNg 0.01 ng/ml): 171356
PSMB9 (Fig. 1e) (B16-F10 cells [2]; IFNg 0.01 ng/ml): 214373
PSMB10 (Fig. 1e) (B16-F10 cells [2]; IFNg 0.01 ng/ml): 83490
STAT1 (Fig. 1e) (B16-F10 cells [2]; IFNg 0.01 ng/ml): 156019
PSMB8 (Fig. 1e) (B16-F10 cells [2]; IFNg 0.03 ng/ml): 202198
PSMB9 (Fig. 1e) (B16-F10 cells [2]; IFNg 0.03 ng/ml): 947224
PSMB10 (Fig. 1e) (B16-F10 cells [2]; IFNg 0.03 ng/ml): 557217
STAT1 (Fig. 1e) (B16-F10 cells [2]; IFNg 0.03 ng/ml): 430481
PSMB8 (Fig. 1e) (B16-F10 cells [2]; IFNg 0.10 ng/ml): 232103
PSMB9 (Fig. 1e) (B16-F10 cells [2]; IFNg 0.10 ng/ml): 2077116
PSMB10 (Fig. 1e) (B16-F10 cells [2]; IFNg 0.10 ng/ml): 2055449
STAT1 (Fig. 1e) (B16-F10 cells [2]; IFNg 0.10 ng/ml): 714350
PSMB8 (Fig. 1e) (B16-F10 cells [2]; IFNg 0.30 ng/ml): 334603
PSMB9 (Fig. 1e) (B16-F10 cells [2]; IFNg 0.30 ng/ml): 3663399
PSMB10 (Fig. 1e) (B16-F10 cells [2]; IFNg 0.30 ng/ml): 3429074
STAT1 (Fig. 1e) (B16-F10 cells [2]; IFNg 0.30 ng/ml): 1243340
PSMB8 (Fig. 1e) (B16-F10 cells [2]; IFNg 1.00 ng/ml): 529221
PSMB9 (Fig. 1e) (B16-F10 cells [2]; IFNg 1.00 ng/ml): 4935730
PSMB10 (Fig. 1e) (B16-F10 cells [2]; IFNg 1.00 ng/ml): 4476630
STAT1 (Fig. 1e) (B16-F10 cells [2]; IFNg 1.00 ng/ml): 1537016
PSMB8 (Fig. 1e) (B16-F10 cells [2]; IFNg Nil): 173338
PSMB9 (Fig. 1e) (B16-F10 cells [2]; IFNg Nil): 17374
PSMB10 (Fig. 1e) (B16-F10 cells [2]; IFNg Nil): 18816
STAT1 (Fig. 1e) (B16-F10 cells [2]; IFNg Nil): 22848
